The NIST ThermoML archive (doi:10.1021/acs.jced.5b01075)

Assay: xn = mol fraction of the nth substance listed
Details: for viscosity: 100 kPa, Liquid, Concentric cylinders viscometry; for surface tension liquid-gas: 294.2 K, Pendant drop shape

C1CC[C@H]2CCCC[C@@H]2C1 [trans-decahydronaphthalene] + c1ccc2c(c1)CCCC2
viscosity [mPa·s]
Details	293.15 K	303.15 K	313.15 K	323.15 K	333.15 K	343.15 K	353.15 K	363.15 K	373.15 K
x2 = 0.1044	2.07	1.74	1.48	1.27	1.1	0.968	0.856	0.765	0.689
x2 = 0.2075	2.03	1.71	1.46	1.25	1.09	0.957	0.847	0.758	0.683
x2 = 0.3094	2.02	1.7	1.44	1.24	1.08	0.95	0.842	0.753	0.68
x2 = 0.4109	2	1.68	1.43	1.23	1.07	0.943	0.836	0.749	0.676
x2 = 0.5112	2.02	1.69	1.44	1.24	1.08	0.947	0.84	0.752	0.679
x2 = 0.6106	2.04	1.71	1.45	1.25	1.08	0.951	0.843	0.755	0.685
x2 = 0.7093	2.07	1.73	1.46	1.26	1.09	0.958	0.849	0.76	0.687
x2 = 0.807	2.11	1.75	1.48	1.27	1.1	0.968	0.858	0.768	0.694
x2 = 0.9039	2.17	1.8	1.51	1.29	1.12	0.982	0.87	0.778	0.703

Details	surface tension liquid-gas [mN/m]
x2 = 0.1044	30.5
x2 = 0.2075	31
x2 = 0.3094	31.4
x2 = 0.4109	32.1
x2 = 0.5112	32.3
x2 = 0.6106	32.9
x2 = 0.7093	33.6
x2 = 0.807	34.1
x2 = 0.9039	35
